# Experiments:
# [1] = molecular target: T1, Tyrosine-protein kinase Yes (Homo sapiens, UniProt P07947); experiment: Inhibition of Yes1 (unknown origin) by [gamma-33P]-ATP radiolabeled enzyme activity assay
# [2] = molecular target: T1, Tyrosine-protein kinase Yes; experiment: Inhibition of Yes1 (unknown origin) assessed as kinase-dependent enzymatic production of ADP from ATP using coupled luminescence-based reaction by ADP-Glo kinase assay
# [3] = Antiproliferative activity against human Rh30 cells after 48 hrs by CellTiter-Glo luminescent assay; settings: SJRH30, 48 h
# [4] = tested on: RD; experiment: Antiproliferative activity against human RD cells after 48 hrs by CellTiter-Glo luminescent assay
# T1 sequence (P07947 whole entry): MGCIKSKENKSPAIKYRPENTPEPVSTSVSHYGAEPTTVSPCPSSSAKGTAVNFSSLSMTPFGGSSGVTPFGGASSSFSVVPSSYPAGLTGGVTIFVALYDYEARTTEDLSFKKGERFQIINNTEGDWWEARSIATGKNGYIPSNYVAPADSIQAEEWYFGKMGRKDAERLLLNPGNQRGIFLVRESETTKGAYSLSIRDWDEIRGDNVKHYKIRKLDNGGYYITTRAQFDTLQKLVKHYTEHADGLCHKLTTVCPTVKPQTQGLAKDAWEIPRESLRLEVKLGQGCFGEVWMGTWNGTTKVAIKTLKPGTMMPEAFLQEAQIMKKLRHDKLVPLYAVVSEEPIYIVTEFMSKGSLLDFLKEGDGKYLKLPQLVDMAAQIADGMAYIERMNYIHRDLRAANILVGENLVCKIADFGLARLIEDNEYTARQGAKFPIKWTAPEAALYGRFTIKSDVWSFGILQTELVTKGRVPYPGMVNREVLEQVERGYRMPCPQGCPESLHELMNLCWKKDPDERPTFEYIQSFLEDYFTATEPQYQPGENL
SMILES,IC50 [1] [nM],IC50 [2] [nM],IC50 [3] [nM],IC50 [4] [nM]
c1cc(-c2cnn3cc(-c4ccc(OCCN5CCCCC5)cc4)cnc23)ccn1 [DORSOMORPHIN],29.8,196,,
CN1CCC(CNc2ccc3ncc(-c4cccc(OC(F)(F)F)c4)n3n2)CC1 [SGI-1776],240,2670,,
CC(C)Oc1cc(Nc2nc(N[C@@H](C)c3ccc(F)cn3)ncc2Cl)n[nH]1,3,39.1,1800,5300
